In PubChem BioAssay AID248 (DTP/NCI, 2004):
Where “and” joins values, the source holds several entries; their conditions need not be identical. Equal values may be shown once. Inconclusive results and toxic doses are left out.

System: L1210 leukemia ip in BDF1 mice, survival T/C
Assay: NCI In Vivo Anticancer Drug Screen. Data for tumor model L1210 Leukemia (intraperitoneal) in B6D2F1 (BDF1) mice
Details: endpoint: mean survival time, higher = longer survival
How it was run: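 Ratio derived from survival: compound-dosed mice over vehicle-dosed mice, all bearing a transplantable tumor.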

[1] = dose: 100.0 mg/kg/injection, schedule: Q04DX003 (ip), vehicle: saline with Tween-80
[2] = dose: 200.0 mg/kg/injection, schedule: Q04DX003 (ip), vehicle: saline with Tween-80
[3] = dose: 400.0 mg/kg/injection, schedule: Q04DX003 (ip), vehicle: saline with Tween-80
[4] = dose: 100.0 mg/kg/injection, schedule: Q01DX001 (ip), vehicle: saline
[5] = dose: 100.0 mg/kg/injection, schedule: Q04DX003 (ip), vehicle: acetone
[6] = dose: 200.0 mg/kg/injection, schedule: Q01DX001 (ip), vehicle: saline
[7] = dose: 200.0 mg/kg/injection, schedule: Q04DX003 (ip), vehicle: acetone
[8] = dose: 400.0 mg/kg/injection, schedule: Q04DX003 (ip), vehicle: acetone
[9] = dose: 100.0 mg/kg/injection, schedule: Q01DX001 (ip), vehicle: carboxymethylcellulose (CMC)
[10] = dose: 200.0 mg/kg/injection, schedule: Q01DX001 (ip), vehicle: carboxymethylcellulose (CMC)
[11] = dose: 400.0 mg/kg/injection, schedule: Q01DX001 (ip), vehicle: carboxymethylcellulose (CMC)
[12] = dose: 100.0 mg/kg/injection, schedule: Q01DX009 (ip), vehicle: Klucel (hydroxypropylcellulose) (HPC)
[13] = dose: 100.0 mg/kg/injection, schedule: Q04DX003 (ip), vehicle: Klucel (hydroxypropylcellulose) (HPC)
[14] = dose: 200.0 mg/kg/injection, schedule: Q01DX009 (ip), vehicle: Klucel (hydroxypropylcellulose) (HPC)
[15] = dose: 200.0 mg/kg/injection, schedule: Q04DX003 (ip), vehicle: Klucel (hydroxypropylcellulose) (HPC)

`COc1ccc(C(c2ccccc2)N(N=O)C(=O)c2ccccc2)cc1` (stereo unspecified) was tested, and the T/C (dose: 38.0 mg/kg/injection, schedule: Q04DX002 (ip), vehicle: Klucel (hydroxypropylcellulose) (HPC)) was 94 % of control, the T/C (dose: 75.0 mg/kg/injection, schedule: Q04DX002 (ip), vehicle: Klucel (hydroxypropylcellulose) (HPC)) was 94 % of control and the T/C (dose: 150.0 mg/kg/injection, schedule: Q04DX002 (ip), vehicle: Klucel (hydroxypropylcellulose) (HPC)) was 94 % of control.
With `CN1CCC2CCCCC2C1Cc1ccc(CC2C3CCCCC3CCN2C)cc1` (stereo unspecified) the T/C (dose: 2.5 mg/kg/injection, schedule: Q01DX001 (ip), vehicle: carboxymethylcellulose (CMC)) was 96 % of control and the T/C (dose: 5.0 mg/kg/injection, schedule: Q01DX001 (ip), vehicle: carboxymethylcellulose (CMC)) was 96 % of control.
For `CCOC(=O)CCN(Cc1ccco1)C(=S)Nc1ccccc1`, the T/C (dose: 200.0 mg/kg/injection, schedule: Q01DX Z (ip), vehicle: methylcellulose (MC)) was 89 % of control.
For `Cc1ccccc1Sc1ncnc2nc[nH]c12`, the T/C [1] was 91 % of control, the T/C [2] was 102 % of control and the T/C [3] was 101 % of control.
`O=S1(=O)CC(c2ccc(Br)cc2)Nc2ccccc21` (stereo unspecified) was tested, and the T/C [4] was 98 % of control, the T/C [5] was 97 % of control and the T/C [6] was 101 % of control. The T/C [7] was 100 % of control, the T/C (dose: 400.0 mg/kg/injection, schedule: Q01DX001 (ip), vehicle: saline) was 98 % of control and the T/C [8] was 100 % of control.
With `O=C1C=C2C=CC3CC2(O1)C1CCCCN31` (stereo unspecified) the T/C (dose: 10.0 mg/kg/injection, schedule: Q01DX001 (ip), vehicle: saline) was 105 % of control, the T/C (dose: 20.0 mg/kg/injection, schedule: Q01DX001 (ip), vehicle: saline) was 100 % of control and the T/C [4] was 105 % of control and 102 % of control. For the same molecule, the T/C [6] was 104 % of control and 102 % of control.
`Cc1cc(Br)ccc1NC(=O)/C=C/C(=O)O` was tested, and the T/C (dose: 100.0 mg/kg/injection, schedule: Q04DX002 (ip), vehicle: Klucel (hydroxypropylcellulose) (HPC)) was 114 % of control, the T/C (dose: 200.0 mg/kg/injection, schedule: Q04DX002 (ip), vehicle: Klucel (hydroxypropylcellulose) (HPC)) was 95 % of control and the T/C (dose: 400.0 mg/kg/injection, schedule: Q04DX002 (ip), vehicle: Klucel (hydroxypropylcellulose) (HPC)) was 100 % of control.
`CC(=O)c1ccc(NC(=O)N(CCCl)N=O)cc1` was tested, and the T/C (dose: 2.0 mg/kg/injection, schedule: Q01DX001 (ip), vehicle: carboxymethylcellulose (CMC)) was 122 % of control, the T/C (dose: 18.0 mg/kg/injection, schedule: Q01DX001 (ip), vehicle: carboxymethylcellulose (CMC)) was 190 % of control and the T/C (dose: 25.0 mg/kg/injection, schedule: Q01DX001 (ip), vehicle: carboxymethylcellulose (CMC)) was 152 % of control. For the same molecule, the T/C (dose: 75.0 mg/kg/injection, schedule: Q01DX001 (ip), vehicle: carboxymethylcellulose (CMC)) was 191 % of control, the T/C (dose: 150.0 mg/kg/injection, schedule: Q01DX001 (ip), vehicle: carboxymethylcellulose (CMC)) was 160 % of control and the T/C (dose: 300.0 mg/kg/injection, schedule: Q01DX001 (ip), vehicle: carboxymethylcellulose (CMC)) was 97 % of control.
In the case of `CC[N+](CC)(CC)CC(=O)c1ccc(Br)cc1`, the T/C (dose: 25.0 mg/kg/injection, schedule: Q04DX002 (ip), vehicle: saline with Tween-80) is reported as 97 % of control, the T/C (dose: 50.0 mg/kg/injection, schedule: Q04DX002 (ip), vehicle: saline with Tween-80) is reported as 97 % of control and the T/C (dose: 100.0 mg/kg/injection, schedule: Q04DX002 (ip), vehicle: saline with Tween-80) is reported as 87 % of control and 92 % of control.
With `Cc1c2c(cc3c1[nH]c1ccccc13)C(C)N(C)CC2` (stereo unspecified) the T/C (dose: 14.6 mg/kg/injection, schedule: Q01DX Z (ip), vehicle: saline) was 110 % of control, the T/C (dose: 22.0 mg/kg/injection, schedule: Q01DX Z (ip), vehicle: saline) was 111 % of control and the T/C (dose: 32.5 mg/kg/injection, schedule: Q01DX015 (ip), vehicle: carboxymethylcellulose (CMC)) was 107 % of control. The T/C (dose: 33.0 mg/kg/injection, schedule: Q01DX Z (ip), vehicle: saline) was 113 % of control, the T/C (dose: 50.0 mg/kg/injection, schedule: Q01DX001 (ip), vehicle: carboxymethylcellulose (CMC)) was 109 % of control and the T/C (dose: 50.0 mg/kg/injection, schedule: Q01DX Z (ip), vehicle: saline) was 119 % of control. For the same molecule, the T/C (dose: 75.0 mg/kg/injection, schedule: Q01DX015 (ip), vehicle: carboxymethylcellulose (CMC)) was 108 % of control, the T/C [9] was 109 % of control and the T/C (dose: 150.0 mg/kg/injection, schedule: Q01DX015 (ip), vehicle: carboxymethylcellulose (CMC)) was 118 % of control. The T/C (dose: 150.0 mg/kg/injection, schedule: Q01DX Z (ip), vehicle: saline) was 166 % of control, the T/C [10] was 106 % of control and the T/C (dose: 200.0 mg/kg/injection, schedule: Q01DX Z (ip), vehicle: carboxymethylcellulose (CMC)) was 100 % of control. The T/C (dose: 300.0 mg/kg/injection, schedule: Q01DX015 (ip), vehicle: carboxymethylcellulose (CMC)) was 118 % of control, the T/C (dose: 300.0 mg/kg/injection, schedule: Q01DX Z (ip), vehicle: carboxymethylcellulose (CMC)) was 107 % of control and the T/C [11] was 98 % of control. For the same molecule, the T/C (dose: 750.0 mg/kg/injection, schedule: Q01DX001 (ip), vehicle: carboxymethylcellulose (CMC)) was 110 % of control and the T/C (dose: 1500.0 mg/kg/injection, schedule: Q01DX001 (ip), vehicle: carboxymethylcellulose (CMC)) was 114 % of control.
With `CC(C)(C)CC(C)(C)NS(=O)(=O)CCCBr` the T/C (dose: 25.0 mg/kg/injection, schedule: Q04DX003 (ip), vehicle: saline with Tween-80) was 95 % of control and the T/C (dose: 50.0 mg/kg/injection, schedule: Q04DX003 (ip), vehicle: saline with Tween-80) was 111 % of control.
`COC(=O)c1[nH]cnc1/N=N/Nc1ccc(Cl)cc1` was tested, and the T/C (dose: 50.0 mg/kg/injection, schedule: Q01DX001 (ip), vehicle: other) was 103 % of control, the T/C (dose: 100.0 mg/kg/injection, schedule: Q01DX001 (ip), vehicle: other) was 105 % of control and the T/C (dose: 200.0 mg/kg/injection, schedule: Q01DX001 (ip), vehicle: other) was 105 % of control. The T/C (dose: 400.0 mg/kg/injection, schedule: Q01DX001 (ip), vehicle: other) was 94 % of control.
`C[n+]1ccsn1` was tested, and the T/C [9] was 95 % of control, the T/C [10] was 93 % of control and the T/C [11] was 95 % of control.
With `CCOP(=O)(CCN(C(C)C)C(C)C)OCC` the T/C (dose: 50.0 mg/kg/injection, schedule: Q01DX009 (ip), vehicle: Klucel (hydroxypropylcellulose) (HPC)) was 100 % of control, the T/C [12] was 100 % of control and the T/C [13] was 88 % of control. The T/C [14] was 93 % of control.
For `CSCc1cccc(CO)c1`, the T/C (dose: 100.0 mg/kg/injection, schedule: Q01DX009 (ip), vehicle: acetone) was 101 % of control, the T/C [5] was 98 % of control and the T/C (dose: 200.0 mg/kg/injection, schedule: Q01DX009 (ip), vehicle: acetone) was 105 % of control. The T/C [7] was 106 % of control, the T/C (dose: 400.0 mg/kg/injection, schedule: Q01DX009 (ip), vehicle: acetone) was 97 % of control and the T/C [8] was 109 % of control.
For `O=C(COc1cccc(C(=O)O)c1)Nc1ccccc1`, the T/C [13] was 95 % of control, the T/C [15] was 93 % of control and the T/C (dose: 400.0 mg/kg/injection, schedule: Q04DX003 (ip), vehicle: Klucel (hydroxypropylcellulose) (HPC)) was 92 % of control.
For `O=CNNc1ccccc1`, the T/C (dose: 75.0 mg/kg/injection, schedule: Q01DX001 (ip), vehicle: acetone) was 98 % of control, the T/C [13] was 106 % of control and the T/C (dose: 150.0 mg/kg/injection, schedule: Q01DX001 (ip), vehicle: acetone) was 100 % of control. The T/C [15] was 95 % of control and the T/C (dose: 300.0 mg/kg/injection, schedule: Q01DX001 (ip), vehicle: acetone) was 96 % of control.
For `CC(=O)Nc1ccc2oc(=O)ccc2c1`, the T/C [1] was 98 % of control, the T/C [2] was 105 % of control and the T/C [3] was 98 % of control.
With `COc1ccc(CCC(C)=O)cc1OC` the T/C [12] was 97 % of control and the T/C [14] was 93 % of control.
For `C[C@]12CC[C@@H]3c4ccc(O)cc4CC[C@H]3[C@@H]1CC[C@@H]2O`, the T/C (dose: 500.0 mg/kg/injection, schedule: Q01DX Z (sc), vehicle: water) was 93 % of control and the T/C (dose: 1000.0 mg/kg/injection, schedule: Q01DX Z (sc), vehicle: water) was 90 % of control.
With `NC(CSC(c1ccccc1)(c1ccccc1)c1ccc(F)cc1)C(=O)O` (stereo unspecified) the T/C (dose: 5.5 mg/kg/injection, schedule: Q01DX009 (ip), vehicle: saline) was 117 % of control, the T/C (dose: 8.2 mg/kg/injection, schedule: Q01DX009 (ip), vehicle: saline) was 117 % of control and the T/C (dose: 50.0 mg/kg/injection, schedule: Q01DX009 (ip), vehicle: saline) was 161 % of control. The T/C (dose: 100.0 mg/kg/injection, schedule: Q01DX009 (ip), vehicle: other) was 100 % of control.
